Reference: paper PMC10838382 (Cancer Drug Resistance, 2024)
Like-named read-outs stand apart in the source and are kept apart here.

Legend:
[1] = tested on: PRXF 22Rv1; assay: 2D proliferation assay (CellTiter-Blue); format: cell-based; settings: Homo sapiens
[2] = tested on: PRXF DU-145; assay: 2D proliferation assay (CellTiter-Blue); format: cell-based, human; settings: Homo sapiens
[3] = tested on: PC-3; assay: 2D proliferation assay (CellTiter-Blue); format: cell-based; settings: Homo sapiens
[4] = tested on: DU-145DOC10; assay: 2D proliferation assay, docetaxel-resistant subline; format: cell-based, human; settings: for IC50: Homo sapiens
[5] = tested on: 22Rv1DOC8; assay: as above; format: cell-based, human; settings: for IC50: Homo sapiens
[6] = tested on: PC-3DOC3; assay: 2D proliferation assay, docetaxel-exposed subline; format: cell-based, human
[7] = tested on: DU-145DOC10; assay: 3D clonogenic assay (soft agar); format: cell-based, human; settings: for Relative resistance: DU-145DOC10 vs DU-145
[8] = tested on: 22Rv1DOC8; assay: 3D clonogenic assay (soft agar); format: cell-based, human; settings: for Relative resistance: 22Rv1DOC8 vs 22Rv1; for IC50: Homo sapiens
[9] = Bidirectional permeability assay across Caco-2 monolayers; format: in vitro ADME, human; settings: human
Protocol: (§1) Samples were analyzed using LC-MS/MS.
(§2) The medium was changed 24 h before the experiment. […] The bioanalysis of docetaxel was performed with the .
(§3) The following equation was used to calculate apparent permeability coefficient (Papp):
(§4) dQ: amount of transporter test drug in pmol; dT: incubation time in seconds; A: surface of porous membrane in cm^2 (standard: 0.7); C0: initial concentration of test agent in the donor chamber in pmol/cm^3.

[10] = tested on: Caco-2 cell monolayers; assay: as above; format: in vitro ADME, human; settings: for ER: inhibitor where named: valspodar 10 μM or ritonavir 50 μM
Protocol: as §1, §2, §3, §4

[11] = tested on: GXA 3011; assay: cells; settings: read-out: Relative docetaxel IC50
[12] = tested on: GXA NUGC-4; assay: cells; settings: Homo sapiens, NUGC-4, read-out: Relative docetaxel IC50
[13] = tested on: LXFA EKVX; assay: cells; settings: Homo sapiens, read-out: Relative docetaxel IC50
[14] = tested on: MAXFLB MCF7; assay: cells; settings: Homo sapiens, MCF7, read-out: Relative docetaxel IC50
[15] = tested on: MAXFTN CAL-51; assay: cells; settings: Homo sapiens, CAL-51, read-out: Relative docetaxel IC50
[16] = tested on: MAXFTN MCF 10A; assay: cells; settings: Homo sapiens, read-out: Relative docetaxel IC50
[17] = tested on: OVXF 899; assay: cells; settings: read-out: Relative docetaxel IC50
[18] = tested on: OVXF NCI-ADR-RES; assay: cells; settings: Homo sapiens, read-out: Relative docetaxel IC50
[19] = tested on: DU-145; assay: 3D clonogenic assay (soft agar); settings: Homo sapiens, DU-145, read-out: Docetaxel IC50, DU-145, 3D clonogenic assay
[20] = tested on: 22Rv1; assay: 3D clonogenic assay (soft agar); settings: Homo sapiens, 22Rv1, read-out: Docetaxel IC50, 22Rv1, 3D clonogenic assay
[21] = tested on: LXFA 737; assay: 2D proliferation assay (CellTiter-Blue); settings: read-out: Relative docetaxel IC50
[22] = tested on: MAXFTN MX1; assay: 2D proliferation assay (CellTiter-Blue); settings: read-out: Relative docetaxel IC50
[23] = tested on: OVXF EFO-27; assay: 2D proliferation assay (CellTiter-Blue); settings: Homo sapiens, EFO-27, read-out: Relative docetaxel IC50
[24] = tested on: PC-3M; assay: 2D proliferation assay (CellTiter-Blue); settings: Homo sapiens, read-out: Relative docetaxel IC50
[25] = tested on: 15 tumor cell lines; assay: 2D proliferation assay (CellTiter-Blue), panel of 15 tumor cell lines; settings: read-out: mean relative IC50
[26] = docetaxel + elacridar 1 µM, 3D clonogenic assay
[27] = docetaxel + ritonavir 10 µM, 3D clonogenic assay
[28] = docetaxel without elacridar, 3D clonogenic assay
[29] = docetaxel without ritonavir, 3D clonogenic assay
[30] = without elacridar (elacridar experiment)
[31] = without ritonavir (ritonavir experiment)

With CC(=O)O[C@@]12CO[C@@H]1C[C@H](O)[C@@]1(C)C(=O)[C@H](O)C3=C(C)[C@@H](OC(=O)[C@H](O)[C@@H](NC(=O)OC(C)(C)C)c4ccccc4)C[C@@](O)([C@@H](OC(=O)c4ccccc4)[C@H]21)C3(C)C [Docetaxel] the IC50 ([1]; 22Rv1, 2D culture, Figure 1, read-out: IC 50) was 0.98 nM, the IC50 ([1]; 22Rv1 parental, 2D proliferation assay, read-out: Docetaxel IC50) was 1 nM and the IC50 ([1]; PRXF 22Rv1, 2D proliferation assay, read-out: Relative docetaxel IC50) was 1.5 nM. It also gave an IC50 ([2]; DU-145, DU-145, 2D culture, Figure 1, read-out: IC 50) of 0.81 nM, an IC50 ([2]; DU-145, DU-145 parental, 2D proliferation assay, read-out: Docetaxel IC50) of 0.8 nM and an IC50 ([2]; DU-145, PRXF DU-145, 2D proliferation assay, read-out: Relative docetaxel IC50) of 0.9 nM. For the same molecule, the IC50 ([3]; PC-3, read-out: Relative docetaxel IC50) was 1.9 nM, the IC50 ([3]; PC-3 parental, read-out: Docetaxel IC50) was 1.1 nM and the Relative resistance ([4]; DU-145DOC10 vs DU-145, 2D proliferation assay) was 22.3. For the same molecule, the IC50 ([4]; DU-145DOC10 (passage 10 nM docetaxel), 2D proliferation assay, read-out: Docetaxel IC50) was 17.8 nM, the IC50 ([4]; DU-145DOC10, 2D culture, Figure 1, read-out: IC 50) was 17.8 nM and the Relative resistance ([5]; 22Rv1-DOC8 vs 22Rv1, 2D proliferation assay) was 133.6. It also gave an IC50 ([5]; 22Rv1-DOC8 (passage 8 nM docetaxel), 2D proliferation assay, read-out: Docetaxel IC50) of 134 nM, an IC50 ([5]; 22Rv1DOC8, 2D culture, Figure 1, read-out: IC 50) of 134 nM and an IC50 ([6]; Homo sapiens, PC-3DOC3 (passage 2 nM docetaxel)) of 4.4 nM. The Relative resistance ([6]; PC-3DOC3 vs PC-3) was 4.0, the IC50 ([7]; DU-145DOC10, 3D clonogenic assay, without elacridar (elacridar experiment), read-out: Docetaxel IC50) was 11.7 nM and the “fold decrease of relative IC50 of docetaxel by elacridar” value ([7]; DU-145DOC10, elacridar 1 µM as printed (lower of two concentrations), 3D clonogenic assay) was 6 fold. The “fold decrease of relative IC50 of docetaxel by elacridar” value ([7]; DU-145DOC10, elacridar 10 µM as printed (higher of two concentrations), 3D clonogenic assay) was 7.1 fold, the “fold lower docetaxel IC50 on addition of ritonavir” value ([7]; DU-145DOC10, ritonavir 10 µM, 3D clonogenic assay) was 3.4 fold and the Relative resistance [7, 26] was 1.5. It also gave a Relative resistance [7, 27] of 1.0, a Relative resistance [7, 28] of 10.6 and a Relative resistance [7, 29] of 3.3. For the same molecule, the IC50 ([7]; Homo sapiens, DU-145DOC10, 3D clonogenic assay, + elacridar 1 µM, read-out: Docetaxel IC50) was 1.6 nM, the IC50 ([7]; Homo sapiens, DU-145DOC10, 3D clonogenic assay, + elacridar, first of two values both printed as 1 μM (Figure 6 legend), read-out: Docetaxel IC50) was 1.9 nM and the IC50 ([7]; Homo sapiens, DU-145DOC10, 3D clonogenic assay, + ritonavir 10 µM, read-out: Docetaxel IC50) was 2.8 nM. It also gave an IC50 ([7]; Homo sapiens, DU-145DOC10, 3D clonogenic assay, without elacridar (elacridar experiment), read-out: Docetaxel IC50) of 11.4 nM, an IC50 ([7]; Homo sapiens, DU-145DOC10, 3D clonogenic assay, without ritonavir (ritonavir experiment), read-out: Docetaxel IC50) of 9.5 nM and an IC50 ([7]; Homo sapiens, DU-145DOC10, docetaxel alone, Figure 4A, read-out: IC 50) of 9.37 nM. For the same molecule, the IC50 ([7]; Homo sapiens, DU-145DOC10, docetaxel alone, Figure 6A, read-out: IC 50) was 11.4 nM, the “fold decrease of relative IC50 of docetaxel by elacridar” value ([8]; 22Rv1DOC8, elacridar 1 µM as printed (lower of two concentrations), 3D clonogenic assay) was 91 fold and the “fold decrease of relative IC50 of docetaxel by elacridar” value ([8]; 22Rv1DOC8, elacridar 10 µM as printed (higher of two concentrations), 3D clonogenic assay) was 116 fold. For the same molecule, the “fold decrease of docetaxel IC50 by ritonavir” value ([8]; 22Rv1DOC8, ritonavir 32 μM, 3D clonogenic assay) was 84 fold, the Relative resistance [8, 26] was 1.0 and the Relative resistance [8, 27] was 35.5. For the same molecule, the Relative resistance ([8]; docetaxel + ritonavir 10 µM, 3D clonogenic assay, listed as docetaxel) was 36, the Relative resistance ([8]; docetaxel + ritonavir 32 µM, 3D clonogenic assay) was 2.3 and the Relative resistance [8, 28] was 103.1. It also gave a Relative resistance [8, 29] of 42.0, an IC50 ([8]; 22Rv1DOC8, 3D clonogenic assay, + elacridar 1 µM, read-out: Docetaxel IC50) of 1.3 nM and an IC50 ([8]; 22Rv1DOC8, 3D clonogenic assay, + ritonavir 10 µM, read-out: Docetaxel IC50) of 46.2 nM. For the same molecule, the IC50 ([8]; 22Rv1DOC8, 3D clonogenic assay, + ritonavir 32 µM, read-out: Docetaxel IC50) was 3 nM, the IC50 ([8]; 22Rv1DOC8, 3D clonogenic assay, without elacridar (elacridar experiment), read-out: Docetaxel IC50) was 134 nM and the IC50 ([8]; 22Rv1DOC8, 3D clonogenic assay, without ritonavir (32 μM ritonavir experiment, Figure 5), read-out: relative IC50 value of docetaxel) was 219 nM. The IC50 ([8]; 22Rv1DOC8, 3D clonogenic assay, without ritonavir (ritonavir experiment), read-out: Docetaxel IC50) was 54.6 nM, the IC50 ([8]; 22Rv1DOC8, docetaxel alone, Figure 5A, read-out: IC 50) was 224 nM and the Papp A→B at 60 min, 5 μM ([9]; Caco-2) was 0.29 ± 0.06 ×10⁻⁶ cm/s. For the same molecule, the Papp A→B at 60 min, 10 μM ([9]; Caco-2) was 0.66 ± 0.02 ×10⁻⁶ cm/s, the Papp A→B at 120 min, 5 μM ([9]; Caco-2) was 0.81 ± 0.06 ×10⁻⁶ cm/s and the Papp A→B at 120 min, 10 μM ([9]; Caco-2) was 0.91 ± 0.15 ×10⁻⁶ cm/s. For the same molecule, the Papp B→A at 60 min, 5 μM ([9]; Caco-2) was 20.3 ± 0.25 ×10⁻⁶ cm/s, the Papp B→A at 60 min, 10 μM ([9]; Caco-2) was 21 ± 0.78 ×10⁻⁶ cm/s and the Papp B→A at 120 min, 5 μM ([9]; Caco-2) was 35.4 ± 1.83 ×10⁻⁶ cm/s. It also gave a Papp B→A at 120 min, 10 μM ([9]; Caco-2) of 29.6 ± 0.8 ×10⁻⁶ cm/s, an efflux ratio at 60 min, 5 μM ([9]; Caco-2, docetaxel 5 μM, incubation 60 min, inhibitor where named: valspodar 10 μM or ritonavir 50 μM, read-out: ER) of 69.5 and an efflux ratio at 120 min, 5 μM ([9]; Caco-2, docetaxel 5 μM, incubation 120 min, inhibitor where named: valspodar 10 μM or ritonavir 50 μM, read-out: ER) of 43.9. For the same molecule, the efflux ratio at 60 min, 10 μM ([9]; Caco-2, docetaxel 10 μM, incubation 60 min, inhibitor where named: valspodar 10 μM or ritonavir 50 μM, read-out: ER) was 31.8 ± 1.54, the efflux ratio at 120 min, 10 μM ([9]; Caco-2, docetaxel 10 μM, incubation 120 min, inhibitor where named: valspodar 10 μM or ritonavir 50 μM, read-out: ER) was 32.7 and the ER values ([10]; both at 5 and 10 μM docetaxel, no inhibitor) was > 2. The ER ([10]; docetaxel 5 μM, incubation 60 min) was 69.46 ± 13.24, the ER ([10]; docetaxel 5 μM, incubation 120 min) was 43.85 ± 3.80 and the ER ([10]; docetaxel 10 μM, incubation 120 min) was 32.66 ± 5.35. It also gave an IC50 [11] of 0.5 nM, an IC50 [12] of 5.5 nM and an IC50 [13] of 1.9 nM. It also gave an IC50 [14] of 1.1 nM, an IC50 [15] of 1.7 nM and an IC50 [16] of 0.7 nM. For the same molecule, the IC50 [17] was 20.2 nM, the IC50 [18] was > 100 nM and the IC50 ([19]; + ritonavir 10 µM) was 1.7 nM. It also gave an IC50 [19, 30] of 1.1 nM, an IC50 [19, 31] of 2.9 nM and an IC50 ([20]; + ritonavir 10 µM) of 1.8 nM. For the same molecule, the IC50 [20, 30] was 1.3 nM, the IC50 [20, 31] was 1.3 nM and the IC50 [21] was 2.2 nM. For the same molecule, the IC50 [22] was 1.9 nM, the IC50 [23] was 0.7 nM and the IC50 [24] was 2.4 nM. The IC50 [25] was 2.6 nM.
